From patent publication US20250154156A1, “QUINAZOLINE DERIVATIVE AS KRAS G12C MUTATION INHIBITOR” (Shenzhen Forward Pharmaceuticals Co., Limited, priority 2022, published 2025) come the findings set out here.

For data set [1], the target named is Ba/F3 (KRAS-G12C-H95Q) cells (Homo sapiens, UniProt P01116, G12C/H95Q, cells depend on it). Put plainly: Proliferation experiment of Ba/F3 (KRAS-G12C-H95Q) cells. It counts as cell-based. The settings on record: 72 hours, Cell Titer-Glo, read-out: Test Example 4 IC50. The protocol: Engineered cell strain Ba/F3 (KRAS-G12C-H95Q) was a cell strain constructed by the inventors according to the methods described in Warmuth M. et al, Curr Opin Oncol. […] The cells were grown at 37° C. in a humidified incubator with […].
Chain of Ba/F3 (KRAS-G12C-H95Q) cells (P01116 whole entry G12C/H95Q): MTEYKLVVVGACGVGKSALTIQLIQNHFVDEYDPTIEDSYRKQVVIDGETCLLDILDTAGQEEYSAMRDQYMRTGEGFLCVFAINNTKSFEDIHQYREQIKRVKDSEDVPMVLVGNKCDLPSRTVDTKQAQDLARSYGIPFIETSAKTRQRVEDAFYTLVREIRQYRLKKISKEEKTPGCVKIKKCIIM
(§1) According to the solution described in Cell Titer-Glo Luminescent cell Viability Assay (Promega catalog number #G7570) of Promega Corporation, the number of living cells in the culture was detected. 90 μL of cells (3,000 cells/well) were cultured in a growth medium in a Corning black transparent bottom 96-well plate and were cultured overnight in a 5% CO2 humidified incubator at 37° C. The compound diluted serially in 100% DMSO was added to the cells by a pipette, and the cells were cultured for another 72 hours. 100 μL of the well-mixed Cell Titer-Glo reagent was added to the cells in the 96-well culture plate to lyse the cells and gently mixed. Subsequently, […] was detected on an Envision microplate detector, and the data of each compound was obtained. Finally, the data was input into a suitable software package (such as Prism) for curve fitting analysis.
For orientation: In ATP-based viability assays light output follows the ATP content of the culture.

The target in data set [2] is Ba/F3 (KRAS-G12C-R68S) cells (Homo sapiens, UniProt P01116, G12C/R68S, cells depend on it). Put plainly: Proliferation experiment of Ba/F3 (KRAS-G12C-R68S) cells. The data set is classed as cell-based. The settings on record: 72 hours, Cell Titer-Glo, read-out: Test Example 5 IC50. The protocol:
Engineered cell strain Ba/F3 (KRAS-G12C-R68S) was a cell strain constructed by the inventors according to the methods described in Warmuth M. et al, Curr Opin Oncol. […] The cells were grown at 37° C. in a humidified incubator with 5% CO2.
as §1

In data set [3] the target is Ba/F3 (KRAS-G12C-Q99L) cells (Homo sapiens, UniProt P01116, G12C/Q99L, cells depend on it). Put plainly: Proliferation experiment of Ba/F3 (KRAS-G12C-Q99L) cells. The following applies: 72 hours, Cell Titer-Glo, read-out: Test Example 6 IC50. The data set is classed as cell-based. The protocol: Engineered cell strain Ba/F3 (KRAS-G12C-Q99L) was a cell strain constructed by the inventors according to the methods described in Warmuth M. et al, Curr Opin Oncol. […] The cells were grown at 37° C. in a humidified incubator with 5% CO2.
Chain of Ba/F3 (KRAS-G12C-Q99L) cells (P01116 whole entry G12C/Q99L): as the sequence (P01116 whole entry G12C/H95Q) above, with Q95H, Q99L counted along it
as §1

In data set [4] the target is Ba/F3 (KRAS-G12C-Y96C) cells (Homo sapiens, UniProt P01116, G12C/Y96C, cells depend on it). Put plainly: Proliferation experiment of Ba/F3 (KRAS-G12C-Y96C) cells. The following applies: 72 hours, Cell Titer-Glo, read-out: Test Example 3 IC50. It counts as cell-based. How it is done:
Engineered cell strain Ba/F3 (KRAS-G12C-Y96C) was a cell strain constructed by the inventors according to the methods described in Warmuth M. et al, Curr Opin Oncol. […] The cells were grown at 37° C. in a humidified incubator with […].
as §1, with “[…]” for “5%”

Data set [5] is described as follows: In vitro human liver microsome stability experiment. It counts as in vitro ADME. The settings on record: human liver microsomes; for half-life / microsomal CLint: 1 mg/mL microsome protein, NADPH, 37° C.; for microsomal CLint: read-out: CLint(mic); for CLint scaled: scaled to liver. How it is done:
Eight 96-well incubation plates were prepared, named [NT], Blank60, and NCF60, respectively. […] No compound to be tested or control compound was added to the Blank60 plate and samples were taken after 60 minutes of incubation. The NCF60 plate, in which a potassium phosphate buffer was used instead of an NADPH regeneration system solution (Sigma, N0505), was incubated for 60 minutes. […] Only the working solution of microsomes was added to the Blank60 plate, and the incubation plates Blank60, T5, T15, T30, T45, and T60 except TO and NCF60 were then placed in a water bath at 37° C. for pre-incubation for about 10 minutes. To the TO plate sample, 600 μL of a stop solution (acetonitrile:methanol (95:5, v/v) solution containing 100 ng/mL tolbutamide (Sigma, T0891)) was added first, and then an NADPH regeneration system working solution was added. 98 μL of a potassium phosphate buffer was added to each well of the NCF60 plate and incubated for 60 minutes. After the pre-incubation in the incubation plates Blank60, T5, T15, T30, T45, and T60 was complete, 98 μL of the NADPH regeneration system working solution was added to each sample well to initiate the reaction. After an appropriate incubation time (such as 5, 15, 30, 45, and 60 minutes), 600 μL of the stop solution was added to each sample well and control sample well in the Blank60, […] the reaction. All the sample plates were shaken evenly and centrifuged at 3220×g for 20 minutes. 200 μL of each test sample supernatant was taken and diluted into 200 μL of an aqueous solution containing 0.3% formic acid for LC-MS/MS analysis, and 100 μL of the control sample supernatant was taken and diluted into 300 μL of pure water for LC-MS/MS analysis. Calculations were carried out according to the following formulas: […]

The subject of data set [6] is NCI-H358 cells (KRAS G12C mutant cell line). Put plainly: Proliferation experiment of NCI-H358 cells (Cell Titer-Glo). It counts as cell-based. The following applies: Homo sapiens, 72 hours, read-out: Test Example 1 IC50. How it is done: as §1, with “(8,000” for “(3,000”
Data set [7] concerns NCI-H23 cells (KRAS G12C mutant cell line). Put plainly: Proliferation experiment of NCI-H23 cells (Cell Titer-Glo). The data set is classed as cell-based. The following applies: Homo sapiens, 72 hours, read-out: Test Example 2 IC50. How it is done:
Human lung cancer cell line NCI-H23 (ATCC, CRL-5800) was a KRAS G12C mutant cell line.
as §1, with “(8,000” for “(3,000”

pIC50: −log10 of the molar value.

A word on the half-life: it is the time needed for the level to fall by half in the phase considered. Read a high half-life as slow loss. Broadly, the CLint scaled is the rate of metabolic loss divided by the concentration. High values mean faster metabolism, low ones greater metabolic stability. Broadly, the pIC50 is the IC50 on a negative log10 scale, so that one unit is a factor of ten.

Chain of Ba/F3 (KRAS-G12C-R68S) cells (P01116 whole entry G12C/R68S): as the sequence (P01116 whole entry G12C/H95Q) above, with R68S, Q95H counted along it
Chain of Ba/F3 (KRAS-G12C-Y96C) cells (P01116 whole entry G12C/Y96C): as the sequence (P01116 whole entry G12C/H95Q) above, with Q95H, Y96C counted along it

Consider `C#Cc1cc(-c2c(F)cc3c(N4CCN(C(=O)C(=C)F)[C@@H](CC#N)C4)nc(OCC45CCCN4CCC5)nc3c2F)c2ccccc2c1` [Compound 26, 2-((2S)-4-(7-(3-ethynylnaphth-1-yl)-6,8-difluoro-2-((tetrahydro-1H-pyrrolizin-7a(5H)-yl)methoxy)quinazolin-4-yl)-1-(2-fluoroacryloyl)piperazin-2-yl)acetonitrile], for which the GI50 in data set [1], in data set [2], in data set [3] and in data set [4] was above 5000 nM throughout.

In the case of `C#Cc1ccc2cccc(-c3c(F)cc4c(N5CCN(C(=O)C(=C)F)[C@@H](CC#N)C5)nc(OCC56CCCN5CCC6)nc4c3F)c2c1` [Compound 25, 2-((2S)-4-(7-(7-ethynylnaphth-1-yl)-6,8-difluoro-2-((tetrahydro-1H-pyrrolizin-7a(5H)-yl)methoxy)quinazolin-4-yl)-1-(2-fluoroacryloyl)piperazin-2-yl)acetonitrile], the GI50 in data set [1], in data set [2], in data set [3] and in data set [4] was above 5000 nM throughout.

As for `C#Cc1cccc2c(-c3c(F)cc4c(N5CCN(C(=O)C(=C)F)[C@@H](CC#N)C5)nc(OCC56CCCN5CCC6)nc4c3F)cccc12` [Compound 27, 2-((2S)-4-(7-(5-ethynylnaphth-1-yl)-6,8-difluoro-2-((tetrahydro-1H-pyrrolizin-7a(5H)-yl)methoxy)quinazolin-4-yl)-1-(2-fluoroacryloyl)piperazin-2-yl)acetonitrile], the GI50 in data set [1], in data set [2], in data set [3] and in data set [4] was above 5000 nM in each case.

As to `C#Cc1c(F)ccc2cc(O)cc(-c3ccc4c(N5CCN(C(=O)C(=C)F)[C@@H](CC#N)C5)nc(OC[C@@]56CCCN5C[C@H](F)C6)nc4c3F)c12` [Compound 4], in data set [5], the half-life stood at 25.5 min. For the same molecule, the microsomal CLint in data set [5] came to 54.3 µL/min/mg. In data set [5], the CLint scaled was determined as 48.9 mL/min/kg. In addition, the pIC50 in data set [6] was 9.36; in data set [7], 8.94. Also, the GI50 in data set [1] was 39.4 nM; in data set [2], 50.6 nM; in data set [3] it was 9.06 nM; in data set [4], 5.2 nM.

In the case of `C=C(F)C(=O)N1CCN(c2nc(OCC34CCCN3CCC4)nc3c(F)c(-c4cccc5cccc(Cl)c45)ccc23)C[C@@H]1CC#N` [Compound 17, (S)-2-(4-(7-(8-chloronaphth-1-yl)-8-fluoro-2-((tetrahydro-1H-pyrrolizin-7a(5H)-yl)methoxy)quinazolin-4-yl)-1-(2-fluoroacryloyl)piperazin-2-yl)acetonitrile], the negative logarithm of the IC50 (pIC50) is 9.22 in data set [6] and 9.28 in data set [7].

Regarding `C=C(F)C(=O)N1CCN(c2nc(OC[C@@]34CCCN3C[C@H](F)C4)nc3c(F)c(-c4cccc5cccc(Cl)c45)ccc23)C[C@@H]1CC#N` [Compound 5], the pIC50 is 8.80 in data set [6] and 8.90 in data set [7]. The GI50 was 709 nM in data set [1], 929 nM in data set [2], 589 nM in data set [3] and 473 nM in data set [4].

With `C=C(F)C(=O)N1CCN(c2nc(OCC34CCCN3CCC4)nc3c(F)c(-c4cc(O)cc5c(Cl)cccc45)ccc23)C[C@@H]1CC#N` [Compound 28, (S)-2-(4-(7-(5-chloro-3-hydroxynaphth-1-yl)-8-fluoro-2-((tetrahydro-1H-pyrrolizin-7a(5H)-yl)methoxy)quinazolin-4-yl)-1-(2-fluoroacryloyl)piperazin-2-yl)acetonitrile], the GI50 in data set [1], in data set [2], in data set [3] and in data set [4] was above 5000 nM throughout.

With `C=C(F)C(=O)N1CCN(c2nc(OCC34CCCN3CCC4)nc3c(F)c(-c4cc(O)cc5ccc(Cl)cc45)ccc23)C[C@@H]1CC#N` [Compound 29, (S)-2-(4-(7-(7-chloro-3-hydroxynaphth-1-yl)-8-fluoro-2-((tetrahydro-1H-pyrrolizin-7a(5H)-yl)methoxy)quinazolin-4-yl)-1-(2-fluoroacryloyl)piperazin-2-yl)acetonitrile], the GI50 in data set [1], in data set [2], in data set [3] and in data set [4] was above 5000 nM in each case.

Regarding `C=C(F)C(=O)N1CCN(c2nc(OCC34CCCN3CCC4)nc3c(F)c(-c4cccc5cccc(Cl)c45)c(F)cc23)C[C@@H]1CC#N` [Compound 6A, 2-((2S)-4-(7-(8-chloronaphth-1-yl)-6,8-difluoro-2-((tetrahydro-1H-pyrrolizin-7a(5H)-yl)methoxy)quinazolin-4-yl)-1-(2-fluoroacryloyl)piperazin-2-yl)acetonitrile], the pIC50 in data set [6] is 8.74; in data set [7], 8.84. The GI50 in data set [1] came to 689 nM; in data set [2] it was 863 nM; in data set [3], 779 nM; in data set [4], 525 nM.

`C#Cc1c(F)ccc2cccc(-c3c(F)cc4c(N5CCN(C(=O)C(=C)F)[C@@H](CC#N)C5)nc(OCC56CCCN5CCC6)nc4c3F)c12` [Compound 19B, 2-((2S)-4-(7-(8-ethynyl-7-fluoronaphth-1-yl)-6,8-difluoro-2-((tetrahydro-1H-pyrrolizin-7a(5H)-yl)methoxy)quinazolin-4-yl)-1-(2-fluoroacryloyl)piperazin-2-yl)acetonitrile]: in data set [5], the half-life stood at 24.5 min, the microsomal CLint turned out to be 56.5 µL/min/mg and the CLint scaled was 50.9 mL/min/kg. Moreover, in data set [6], the pIC50 is 9.33. Besides, in data set [7], the pIC50 was 8.77.
